Type in all cases: functional, Salmonella enterica subsp. enterica serovar Typhimurium, T98
The subject of assay [1] is Salmonella typhimurium. In words: Antimutagenic activity in Salmonella Typhimurium […] assessed as inhibition of 2-aminoanthracene-induced mutation at 600 ug/plate after 72 hrs in presence of Ames S-9 fraction.
For assay [2], the system named is Salmonella typhimurium. Kind of assay: Antimutagenic activity in Salmonella Typhimurium […] assessed as inhibition of 2-aminoanthracene-induced mutation at 300 ug/plate after 72 hrs in presence of Ames S-9 fraction.
The test system of assay [3] is Salmonella typhimurium. Kind of assay: Antimutagenic activity in Salmonella Typhimurium […] assessed as inhibition of 2-aminoanthracene-induced mutation at 150 ug/plate after 72 hrs in presence of Ames S-9 fraction.
The subject of assay [4] is Salmonella typhimurium. In words: Antimutagenic activity in Salmonella Typhimurium […] assessed as inhibition of acetylaminofluorene-induced mutation at 600 ug/plate after 72 hrs in presence of Ames S-9 fraction.
Assay [5] concerns Salmonella typhimurium. In words: Antimutagenic activity in Salmonella Typhimurium […] assessed as inhibition of acetylaminofluorene-induced mutation at 300 ug/plate after 72 hrs in presence of Ames S-9 fraction.
Assay [6] deals with Salmonella typhimurium. In words: Antimutagenic activity in Salmonella Typhimurium […] assessed as inhibition of acetylaminofluorene-induced mutation at 150 ug/plate after 72 hrs in presence of Ames S-9 fraction.
Assay [7] deals with Salmonella typhimurium. In words: Antimutagenic activity in Salmonella Typhimurium […] assessed as inhibition of benzo[a]pyrene-induced mutation at 600 ug/plate after 72 hrs in presence of Ames S-9 fraction.
Assay [8] deals with Salmonella typhimurium. Kind of assay: Antimutagenic activity in Salmonella Typhimurium […] assessed as inhibition of benzo[a]pyrene-induced mutation at 300 ug/plate after 72 hrs in presence of Ames S-9 fraction.
Assay [9] concerns Salmonella typhimurium. In words: Antimutagenic activity in Salmonella Typhimurium […] assessed as inhibition of benzo[a]pyrene-induced mutation at 150 ug/plate after 72 hrs in presence of Ames S-9 fraction.
Assay [10] concerns Salmonella typhimurium. Kind of assay: Antimutagenic activity in Salmonella Typhimurium […] assessed as inhibition of 2-nitroflorene-induced mutation at 600 ug/plate after 72 hrs.
Assay [11] deals with Salmonella typhimurium. Kind of assay: Antimutagenic activity in Salmonella Typhimurium […] assessed as inhibition of 2-nitroflorene-induced mutation at 300 ug/plate after 72 hrs.
The subject of assay [12] is Salmonella typhimurium. Kind of assay: Antimutagenic activity in Salmonella Typhimurium […] assessed as inhibition of 2-nitroflorene-induced mutation at 150 ug/plate after 72 hrs.

Molecules are shown by their SMILES.

For the molecule `COc1c2occc2cc2ccc(=O)oc12` [METHOXSALEN], the “inhibition (INH)” value came to 44% with Salmonella typhimurium [1]; 0% in the assay with Salmonella typhimurium [2]; 0% with Salmonella typhimurium [3]; 39% in the assay with Salmonella typhimurium [4]; 21% in the assay with Salmonella typhimurium [5]; 0% with Salmonella typhimurium [6]. In addition, the “inhibition (INH)” value worked out at 86% in the assay with Salmonella typhimurium [7]; 76% in the assay on Salmonella typhimurium [8]; 58% in the assay with Salmonella typhimurium [9]; 25% with Salmonella typhimurium [10]; 39% in the assay with Salmonella typhimurium [11]; 5% in the assay on Salmonella typhimurium [12].
Regarding `O=c1ccc2cc3ccoc3cc2o1` [PSORALEN], the “inhibition (INH)” value with Salmonella typhimurium [1] was 60%.
`O=c1ccc2ccccc2o1` [COUMARIN]: the “inhibition (INH)” value with Salmonella typhimurium [1] stood at 22%; with Salmonella typhimurium [2] it was 0%; in the assay with Salmonella typhimurium [3], 0%; in the assay on Salmonella typhimurium [4] it was 36%; with Salmonella typhimurium [5], 28%; with Salmonella typhimurium [6], 5%. Further, the “inhibition (INH)” value in the assay on Salmonella typhimurium [7] is 53%; in the assay on Salmonella typhimurium [8], 16%; in the assay on Salmonella typhimurium [9], 10%; in the assay with Salmonella typhimurium [10], 73%; with Salmonella typhimurium [11], 17%; with Salmonella typhimurium [12] it was 24%.
Regarding `CC(C)=CCOc1c2occc2cc2ccc(=O)oc12` [PENTOSALEN], the “inhibition (INH)” value came out at 81% in the assay with Salmonella typhimurium [1]; 0% in the assay with Salmonella typhimurium [2]; 0% in the assay with Salmonella typhimurium [3]; 56% in the assay with Salmonella typhimurium [5]; 35% in the assay on Salmonella typhimurium [6]; 90% in the assay with Salmonella typhimurium [7]. Further, the “inhibition (INH)” value was 87% with Salmonella typhimurium [8]; 86% in the assay with Salmonella typhimurium [9]; 58% with Salmonella typhimurium [10]; 43% in the assay on Salmonella typhimurium [11]; 22% in the assay with Salmonella typhimurium [12].
With `O=c1ccc2ccc(O)cc2o1` [UMBELLIFERONE], in the assay with Salmonella typhimurium [1], the “inhibition (INH)” value is 14%.
As for `COc1ccc2ccc(=O)oc2c1CC=C(C)C` [OSTHOLE], the “inhibition (INH)” value with Salmonella typhimurium [1] amounted to 68%; in the assay on Salmonella typhimurium [2] it was 0%; in the assay on Salmonella typhimurium [3], 0%; in the assay on Salmonella typhimurium [4], 74%; in the assay with Salmonella typhimurium [5] it was 56%; in the assay with Salmonella typhimurium [6] it was 51%. Also, the “inhibition (INH)” value was 54% in the assay on Salmonella typhimurium [7]; 49% in the assay on Salmonella typhimurium [8]; 13% in the assay with Salmonella typhimurium [9]; 80% with Salmonella typhimurium [10]; 55% with Salmonella typhimurium [11]; 29% with Salmonella typhimurium [12].
With `COc1c2ccoc2cc2oc(=O)ccc12` [BERGAPTEN], the “inhibition (INH)” value was found to be 23% with Salmonella typhimurium [1]; 0% in the assay with Salmonella typhimurium [2]; 0% with Salmonella typhimurium [3]; 0% in the assay on Salmonella typhimurium [4]; 0% in the assay on Salmonella typhimurium [5]; 0% in the assay on Salmonella typhimurium [6]. Also, the “inhibition (INH)” value was found to be 75% in the assay with Salmonella typhimurium [7]; 67% in the assay with Salmonella typhimurium [8]; 61% in the assay with Salmonella typhimurium [9]; 40% in the assay with Salmonella typhimurium [10]; 41% in the assay on Salmonella typhimurium [11]; 27% with Salmonella typhimurium [12].

For the origin of these results see ChEMBL document CHEMBL1151120, “Plant antimutagenic agents, 3. Coumarins” (J Nat Prod, 1988).
